Measurements published in US10752617B2 (GALDERMA RESEARCH & DEVELOPMENT, priority 2014, dated 2020).

Target: T1, GAL4-RORγ (GAL4 DBD fused to the ROR gamma ligand-binding domain) (Homo sapiens, UniProt P51449)
T1 construct: expressed in transfected cells; host or cells: HG5LN (HeLa line with GAL4-responsive luciferase reporter)
T1 sequence (P51449 269-508 limits assumed): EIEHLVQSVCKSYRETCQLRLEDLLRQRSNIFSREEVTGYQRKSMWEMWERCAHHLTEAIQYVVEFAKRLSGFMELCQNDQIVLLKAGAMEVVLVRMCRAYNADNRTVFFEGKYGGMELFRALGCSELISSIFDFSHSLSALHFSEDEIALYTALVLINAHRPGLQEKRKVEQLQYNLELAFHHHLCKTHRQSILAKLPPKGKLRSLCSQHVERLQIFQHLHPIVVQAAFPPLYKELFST
Assay: GAL4-RORγ transactivation (luciferase reporter, HG5LN HeLa line)
Format: cell-based
Details: HG5LN HeLa cells, 18 hours incubation, luciferase luminescence, read-out: IC50 hRORg
Excerpt: In the tables described above, the median inhibitory concentrations IC50 for the compounds belonging to formula (I) according to the invention have been given according to the following models:
GAL4-RORγ Transactivation
The RORγ transactivation model was developed from the line HG5LN, which is a HeLa line that stably expresses a luciferase reporter gene controlled by a pentamer of the GAL4 recognition domain of yeast and of a β-globin promoter. The HG5LN line was stably transfected by the DNA-binding domain (DBD) of GAL4 fused to the ROR gamma ligand-binding domain (LBD). Molecules that inhibit the ROR gamma constitutive activity reduce the luciferase expression, thus leading to a reduction in the emitted luminescence.
The cells are seeded in 384-well plates (5000 cells in 45 μL/well of culture medium containing 10% fetal calf serum) and incubated for 4 hours at 37° C., 5% CO2. 5 μL of the test molecules (compounds described in the tables described above) are then added to each well and the plates are incubated for 18 hours at a temperature of 37° C. under 5% of CO2. 20 μL of luciferase substrate (Promega) are added to each well and the luminescence emitted is read by a microplate reader.
The luminescence units (“RLU”) are normalized by positive controls (“POS” containing a saturated concentration of N-(2,2,2-trifluoroethyl)-N-[4-[2,2,2-trifluoro-1-hydroxy-1-(trifluoromethyl)ethyl]phenyl])benzenesulfonamide and negative controls (“NEG” containing DMSO): % inhibition=((RLU−NEG)*100)/(POS−NEG). The IC50 values are calculated from a 4-parameter logistic model using the XLFit software (IDBS).

IC50 [µM]	SMILES
< 0.1	CCc1ccc(N(C2CCCC2)S(=O)(=O)c2ccc3c(cnn3CC3CCOCC3)c2)cc1 [Compound 32, 1-(tetrahydropyran-4-ylmethyl)-1H-indazole-5-sulfonic acid cyclopentyl(4-ethylphenyl)amide]
> 1	CCc1ccc(N(CC(C)C)S(=O)(=O)c2ccc3[nH]nc(N)c3c2)cc1 [Compound 34, 3-amino-1H-indazole-5-sulfonic acid (4-ethylphenyl)isobutylamide]
> 1	CCc1ccc(N(CCC(C)C)S(=O)(=O)c2ccc3c(cnn3CC3CCOCC3)c2)cc1 [Compound 35, N-(4-ethylphenyl)-N-isopentyl-1-((tetrahydro-2H-pyran-4-yl)methyl)-1H-indazole-5-sulfonamide]
> 1	CCc1ccc(N(CC(C)C)S(=O)(=O)c2ccc3c(cnn3C3CCOCC3)c2)cc1 [Compound 38, 1-(tetrahydropyran-4-yl)-1H-indazole-5-sulfonic acid (4-ethylphenyl)isobutylamide]
> 1	CCc1ccc(N(CC(C)C)S(=O)(=O)c2ccc3c(cnn3C3CCN(C(C)=O)C3)c2)cc1 (stereo not shown) [Compound 40, 1-(1-acetylpyrrolidin-3-yl)-1H-indazole-5-sulfonic acid (4-ethylphenyl)isobutylamide]
> 1	CCc1ccc(N(C2CCC2)S(=O)(=O)c2ccc3c(cnn3CC3CCOCC3)c2)cc1 [Compound 41, 1-(tetrahydropyran-4-ylmethyl)-1H-indazole-5-sulfonic acid cyclobutyl(4-ethylphenyl)amide]
> 1	CC(C)CN(c1cccc(Cl)c1)S(=O)(=O)c1ccc2c(cnn2CC2CCOCC2)c1 [Compound 44, 1-(tetrahydropyran-4-ylmethyl)-1H-indazole-5-sulfonic acid (5-chlorophenyl)isobutylamide]
> 1	CC(C)CN(c1ccc(OC(F)(F)F)cc1)S(=O)(=O)c1ccc2c(cnn2CC2CCOCC2)c1 [Compound 49, 1-(tetrahydropyran-4-ylmethyl)-1H-indazole-5-sulfonic acid (4-trifluoromethoxyphenyl)isobutylamide]
> 1	CC(C)CN(c1ccc(C(C)C)cn1)S(=O)(=O)c1ccc2c(cnn2CC2CCOCC2)c1 [Compound 50, 1-(tetrahydropyran-4-ylmethyl)-1H-indazole-5-sulfonic acid isobutyl(5-isopropylpyridin-2-yl)amide]
0.1 to 1	CC(C)CN(Cc1ccccc1C(F)(F)F)S(=O)(=O)c1ccc2c(cnn2CC2CCOCC2)c1 [Compound 52, 1-(tetrahydropyran-4-ylmethyl)-1H-indazole-5-sulfonic acid isobutyl(2-trifluoromethylbenzyl)amide]
> 1	Cc1cccc(F)c1N(CC(C)C)S(=O)(=O)c1ccc2c(cnn2CC2CCOCC2)c1 [Compound 53, 1-(tetrahydropyran-4-ylmethyl)-1H-indazole-5-sulfonic acid (2-fluoro-6-methylphenyl)isobutylamide]
0.1 to 1	Cc1cc(F)ccc1N(CC(C)C)S(=O)(=O)c1ccc2c(cnn2CC2CCOCC2)c1 [Compound 54, 1-(tetrahydropyran-4-ylmethyl)-1H-indazole-5-sulfonic acid (4-fluoro-2-methylphenyl)isobutylamide]
0.1 to 1	COc1ccc(N(CC(C)C)S(=O)(=O)c2ccc3c(cnn3CC3CCOCC3)c2)c(C)c1 [Compound 55, 1-(tetrahydropyran-4-ylmethyl)-1H-indazole-5-sulfonic acid isobutyl(4-methoxy-2-methylphenyl)amide]
0.1 to 1	Cc1cc(C#N)ccc1N(CC(C)C)S(=O)(=O)c1ccc2c(cnn2CC2CCOCC2)c1 [Compound 57, 1-(tetrahydropyran-4-ylmethyl)-1H-indazole-5-sulfonic acid (4-cyano-2-methylphenyl)isobutylamide]
> 1	CCc1ccc(N(CC(CO)CCl)S(=O)(=O)c2ccc3c(cnn3CC3CCOCC3)c2)cc1 (stereo not shown) [Compound 60, 1-(tetrahydropyran-4-ylmethyl)-1H-indazole-5-sulfonic acid (3-chloro-2-hydroxymethylpropyl)(4-ethylphenyl)amide]
> 1	CCc1ccc(N(CC(C)C)S(=O)(=O)c2ccc3[nH]nc(OCC4CCOCC4)c3c2)cc1 [Compound 61, 3-(tetrahydropyran-4-ylmethoxy)-1H-indazole-5-sulfonic acid (4-ethylphenyl)isobutylamide]
0.1 to 1	Cc1ccc(N(CC(C)C)S(=O)(=O)c2ccc3c(cnn3CC3CCOCC3)c2)c(C#N)c1 [Compound 70, 1-(tetrahydropyran-4-ylmethyl)-1H-indazole-5-sulfonic acid (2-cyano-4-methylphenyl)isobutylamide]

The remaining lines, values behind:

SMILES	IC50 [µM]
CCc1ccc(N(CC2CCOC2)S(=O)(=O)c2ccc3c(cnn3CC3CCOCC3)c2)cc1 (stereo not shown) [Compound 33, 1-(tetrahydropyran-4-ylmethyl)-1H-indazole-5-sulfonic acid (4-ethylphenyl)(tetrahydrofuran-3-ylmethyl)amide]	> 1
Cc1ccc(F)cc1N(CC(C)C)S(=O)(=O)c1ccc2c(cnn2CC2CCOCC2)c1 [Compound 42, 1-(tetrahydropyran-4-ylmethyl)-1H-indazole-5-sulfonic acid (5-fluoro-2-methylphenyl)isobutylamide]	0.1 to 1
Cc1c(F)cccc1N(CC(C)C)S(=O)(=O)c1ccc2c(cnn2CC2CCOCC2)c1 [Compound 43, 1-(tetrahydropyran-4-ylmethyl)-2H-indazole-5-sulfonic acid (3-fluoro-2-methylphenyl)isobutylamide]	0.1 to 1
CC(C)CN(c1ccccc1Cl)S(=O)(=O)c1ccc2c(cnn2CC2CCOCC2)c1 [Compound 45, 1-(tetrahydropyran-4-ylmethyl)-1H-indazole-5-sulfonic acid (2-chlorophenyl)isobutylamide]	> 1
CC(C)CN(c1ccc(F)cc1)S(=O)(=O)c1ccc2c(cnn2CC2CCOCC2)c1 [Compound 46, 1-(tetrahydropyran-4-ylmethyl)-1H-indazole-5-sulfonic acid (4-fluorophenyl)isobutylamide]	> 1
Cc1ccc(N(CC(C)C)S(=O)(=O)c2ccc3c(cnn3CC3CCOCC3)c2)cc1 [Compound 47, 1-(tetrahydropyran-4-ylmethyl)-1H-indazole-5-sulfonic acid isobutyl-p-tolylamide]	> 1
Cc1ccccc1N(CC(C)C)S(=O)(=O)c1ccc2c(cnn2CC2CCOCC2)c1 [Compound 48, 1-(tetrahydropyran-4-ylmethyl)-1H-indazole-5-sulfonic acid isobutyl-o-tolylamide]	> 1
CC(C)CN(Cc1cccc(Cl)c1)S(=O)(=O)c1ccc2c(cnn2CC2CCOCC2)c1 [Compound 51, 1-(tetrahydropyran-4-ylmethyl)-1H-indazole-5-sulfonic acid (3-chlorobenzyl)isobutylamide]	> 1
CC(C)CN(c1ccccc1C(F)(F)F)S(=O)(=O)c1ccc2c(cnn2CC2CCOCC2)c1 [Compound 58, 1-(tetrahydropyran-4-ylmethyl)-1H-indazole-5-sulfonic acid isobutyl(2-trifluoromethylphenyl)amide]	0.1 to 1
CC(C)CN(c1ccc(C(F)(F)F)cc1)S(=O)(=O)c1ccc2c(cnn2CC2CCOCC2)c1 [Compound 59, 1-(tetrahydropyran-4-ylmethyl)-1H-indazole-5-sulfonic acid isobutyl(4-trifluoromethylphenyl)amide]	> 1
CCc1ccc(N(CC(C)C)S(=O)(=O)c2ccc3c(C=C4CCOCC4)n[nH]c3c2)cc1 [Compound 62, 3-(tetrahydropyran-4-ylidenemethyl)-1H-indazole-6-sulfonic acid (4-ethylphenyl)isobutylamide]	< 0.1
CCc1ccc(N(CC(C)C)S(=O)(=O)c2ccc3c(CN4C[C@@H](C)O[C@@H](C)C4)n[nH]c3c2)cc1 [Compound 65, 3-((cis)-2,6-dimethylmorpholin-4-ylmethyl)-1H-indazole-6-sulfonic acid (4-ethylphenyl)isobutylamide]	> 1
CCc1ccc(N(CC(C)C)S(=O)(=O)c2ccc3c(CN4CCOC[C@@H]4C)n[nH]c3c2)cc1 [Compound 66, 3-((S)-3-methylmorpholin-4-ylmethyl)-1H-indazole-6-sulfonic acid (4-ethylphenyl)isobutylamide]	0.1 to 1
CCc1ccc(N(CC(C)C)S(=O)(=O)c2cc(C(=O)OC)c3c(cnn3CC3CCOCC3)c2)cc1 [Compound 74, methyl 5-[(4-ethylphenyl)isobutylsulfamoyl]-1-(tetrahydropyran-4-ylmethyl)-1H-indazole-7-carboxylate]	> 1
